Experiments:
Assay type in all cases: in vivo
Summer barley [1] = test: Container trials with cereals outdoors, post-emergence, Mefenpyr in tank mix; details: 120 g of a.i./ha, without safener
Method: (§1) 1. Herbicidal Post-Emergence Action
(§2) Seeds of monocotyledonous and dicotyledonous weed and crop plants are placed in sandy loam in wood fibre pots or in plastic pots, covered with soil and cultivated in a greenhouse, during the vegetation period also outdoors outside of the greenhouse, under good growth conditions. 2-3 weeks after sowing, the test plants are treated at the one- to three-leaf stage. The test compounds, formulated as wettable powders (WP) or emulsifiable concentrates (EC) are, in various dosages with a water application rate of 300 l/ha (converted), with wetting agent (0.2 to 0.3%) added, sprayed onto the plants and the surface of the soil. 3-4 weeks after the treatment of the test plants, the effect of the preparations is rated visually in comparison to untreated controls (herbicidal effect in per cent (%): 100% effect=the plants have died, 0% effect=like control plants).
(§3) If it is additionally to be tested whether safeners can improve the plant compatibility of test substances in the case of crop plants, the following options are used for applying the safener: • seeds of the crop plants are, before sowing, dressed with the safener substance (the amount of safener is stated in per cent, based on the weight of the seed) • before the application of the test substances, the crop plants are sprayed with the safener at a certain application rate per hectar (usually 1 day before the application of the test substances) • the safener is applied together with the test substance as a tank mix (the amount of safener is stated in g/ha or as a ratio, based on the herbicide).
(§4) By comparing the effect of test substances on crop plants with or without safener treatment, it is possible to assess the effect of the safener substance.
(§5) Container Trials with Cereals Outdoors (Outside the Greenhouse/“Bird Cage”) Mefenpyr in Tank Mix

Summer wheat = test: as above; details: 120 g of a.i./ha, without safener
Method: as §1, §2, §3, §4, §5

Summer barley [2] = test: Container trials with cereals in the greenhouse, post-emergence, Mefenpyr applied 1 day prior to herbicide; details: 50 g of a.i./ha, without safener
Method: as §1
as §2, with “plants). […]” for “plants).”

[3] = test system: green peach aphid (Myzus persicae); test: Myzus Test (spray treatment); details: 100 g/ha, Chinese cabbage discs
Method: (§6) To produce a suitable preparation of active compound, 1 part by weight of active compound is mixed with the stated amounts of solvents and emulsifier, and the concentrate is diluted with emulsifier-containing water to the desired concentration.
Discs of Chinese cabbage (Brassica pekinensis) which are infested by all stages of the green peach aphid (Myzus persicae) are sprayed with a preparation of active compound of the desired concentration.
After the desired period of time, the activity in % is determined. 100% means that all aphids have been killed; 0% means that none of the aphids have been killed.

[4] = test system: greenhouse red spider mite (Tetranychus urticae); test: Tetranychus Test (OP-resistant/spray treatment); details: 100 g/ha; bean leaf discs, spray, OP-resistant
Method: as §6
Discs of bean leaves (Phaseolus vulgaris) which are infested by all stages of the greenhouse red spider mite (Tetranychus urticae) are sprayed with a preparation of active compound of the desired concentration.
After the desired period of time, the activity in % is determined. 100% means that all spider mites have been killed; 0% means that none of the spider mites have been killed.

[5] = test system: larvae of the mustard beetle (Phaedon cochleariae); test: Phaedon Test (spray treatment); details: 100 g/ha, Chinese cabbage discs
Method: [[[…]]] To produce a suitable preparation of active compound, 1 part by weight of active compound is mixed with the stated amounts of solvents and emulsifier, and the concentrate is diluted with emulsifier-containing water to the desired concentration. Discs of Chinese cabbage (Brassica pekinensis) are sprayed with a preparation of active compound of the desired concentration and, after they have dried, populated with larvae of the mustard beetle (Phaedon cochleariae).

Agropyron [6] = test: Herbicidal post-emergence action, greenhouse; details: 320 g a.i./ha, about 3 weeks
Method: (§7) 2. Herbicidal Post-Emergence Action
(§8) Seeds of monocotyledonous and dicotyledonous weed and crop plants are placed into sandy loam in wood fibre pots, covered with soil and cultivated in a greenhouse under good growth conditions. 2-3 weeks after sowing, the test plants are treated at the one-leaf stage. The test compounds, formulated as wettable powders (WP), are, in various dosages with a water application rate of 600 l/ha (converted), with 0.2% of wetting agent added, sprayed onto the green parts of the plants. After the test plants were kept in the greenhouse under optimum growth conditions for about 3 weeks, the effect of the preparations is rated visually in comparison to untreated controls (herbicidal effect in per cent (%): 100% effect=the plants have died, 0% effect=like control plants).

Avena [7] = test: Herbicidal post-emergence action, greenhouse; details: 320 g a.i./ha, about 3 weeks
Method: as §7, §8

Sugar-beets [8] = test: Herbicidal post-emergence action, greenhouse; details: 320 g a.i./ha, about 3 weeks
Method: as §7, §8

Setaria [9] = test: Herbicidal post-emergence action, greenhouse; details: 320 g a.i./ha, about 3 weeks
Method: as §7, §8

Lolium [10] = test: Herbicidal post-emergence action, greenhouse; details: 320 g a.i./ha, about 3 weeks
Method: as §7, §8

Alopecurus [11] = test: Herbicidal post-emergence action, greenhouse; details: 320 g a.i./ha, about 3 weeks
Method: as §7, §8

Meloidogyne incognita = test: Meloidogyne Test (nematicidal action, gall formation on lettuce roots); details: 20 ppm active compound; 100% = no galls
Method: To produce a suitable preparation of active compound, 1 part by weight of active compound is mixed with the stated amounts of solvent and emulsifier, and the concentrate is diluted with water to the desired concentration.
Vessels are filled with sand, solution of active compound, Meloidogyne incognita egg/larvae suspension and lettuce seeds. The lettuce seeds germinate and the plants develop. On the roots, the galls develop.
After the desired period of time, the nematicidal action is determined in % by the formation of galls. 100% means that no galls have been found; 0% means that the number of galls on the treated plants corresponds to that of the untreated control.

Agropyron [12] = test: Herbicidal pre-emergence action, greenhouse; details: 320 g a.i./ha, 3 weeks
Source text: (§9) 1. Herbicidal Pre-Emergence Action
(§10) Seeds of monocotyledonous and dicotyledonous weed and crop plants are placed into sandy loam in wood fibre pots and covered with soil. The test compounds, formulated in the form of wettable powders (WP), are then, in various dosages as aqueous suspension with a water application rate of 600 l/ha (converted), with 0.2% of wetting agent added, applied to the surface of the covering soil.
(§11) After the treatment, the pots are placed in a greenhouse and kept under good growth conditions for the test plants. The visual assessment of the emergence damage on the test plants is carried out after a trial period of 3 weeks by comparison with untreated plants (herbicidal effect in per cent (%): 100% effect=the plants have died, 0% effect=like control plants).

Avena [13] = test: Herbicidal pre-emergence action, greenhouse; details: 320 g a.i./ha, 3 weeks
Source text: as §9, §10, §11

Sugar-beets [14] = test: Herbicidal pre-emergence action, greenhouse; details: 320 g a.i./ha, 3 weeks
Source text: as §9, §10, §11

Setaria [15] = test: Herbicidal pre-emergence action, greenhouse; details: 320 g a.i./ha, 3 weeks
Source text: as §9, §10, §11

Lolium [16] = test: Herbicidal pre-emergence action, greenhouse; details: 320 g a.i./ha, 3 weeks
Source text: as §9, §10, §11

Alopecurus [17] = test: Herbicidal pre-emergence action, greenhouse; details: 320 g a.i./ha, 3 weeks
Source text: as §9, §10, §11

In the case of CCc1cc(Br)cc(C)c1C1=C(O)[C@]2(CC[C@H](OC)CC2)NC1=O [Ex. I-a-1], the “Summer barley observed (%)” value (Summer barley [1]) is reported as 35% and the “Summer wheat observed (%)” value (Summer wheat) is reported as 30%.

With CCc1cc(Br)cc(CC)c1C1=C(OC(=O)COC)[C@]2(CC[C@H](OC)CC2)NC1=O [Ex. I-b-1] the “Summer barley observed (%)” value (Summer barley [2]) was 50%.

CCOC(=O)OC1=C(c2c(C)cc(Br)cc2CC)C(=O)N[C@]12CC[C@@H](OC)CC2 [Ex. I-c-1] was tested, and the “Kill rate in % after 5d” value [3] was 90%, the “Kill rate in % after 5d” value [4] was 70% and the “Summer barley observed (%)” value (Summer barley [1]) was 35%. For the same compound, the “Summer wheat observed (%)” value (Summer wheat) was 20%, the “Kill rate in % after 7d” value [5] was 83% and the “herbicidal effect, Agropyron” value (Agropyron [6]) was 100%. For the same compound, the “herbicidal effect, Avena” value (Avena [7]) was 100%, the “herbicidal effect, Sugar-beets” value (Sugar-beets [8]) was 0% and the “herbicidal effect, Setaria” value (Setaria [9]) was 100%. For the same compound, the “herbicidal effect, Lolium” value (Lolium [10]) was 100%, the “herbicidal effect, Alopecurus” value (Alopecurus [11]) was 100% and the “Effect in % after 14d” value (Meloidogyne incognita) was 90%. For the same compound, the “herbicidal effect, Agropyron” value (Agropyron [12]) was 100%, the “herbicidal effect, Avena” value (Avena [13]) was 97% and the “herbicidal effect, Sugar-beets” value (Sugar-beets [14]) was 0%. The “herbicidal effect, Setaria” value (Setaria [15]) was 100%, the “herbicidal effect, Lolium” value (Lolium [16]) was 100% and the “herbicidal effect, Alopecurus” value (Alopecurus [17]) was 100%.
